Assays:
Type in all cases: in vivo
[1] = system: Tobacco Budworm [Heliothis virescens (Fabricius)] eggs; assay: Tobacco budworm egg test; conditions: 2-day old eggs, percent in solution
Description: (§1) The compounds in Tables 1 and 2 above were tested for insecticidal activity using the following testing procedures. LC50 values, based on the results of these tests and calculated according to dosage-mortality curves, are expressed in Table 3.
Tobacco Budworm [Heliothis virescens (Fabricius)]:
(b). Eggs: Paper towel patches of 2-day old eggs of the tobacco budworm were dipped in acetone solutions of the test compound and placed in petri dishes containing a portion of larval rearing medium. Treated eggs were maintained at 78° F. and mortality was recorded after all control eggs had hatched and the young larvae were feeding on the media. Test concentrations ranged from 0.1% downward. The LC-50 value is expressed below in Table 3 under the heading "TBW-E" in terms of percent of the test compound in the solution.

[2] = system: Housefly [Musca domestica]; assay: Housefly insecticidal test; conditions: μg per 25 female flies; mortality after 48 hours
Description: as §1
Housefly [Musca domestica]:
Test compounds were diluted in acetone and aliquots pipetted onto the bottom of aluminum dishes. To ensure even spreading of the chemical on the bottom of the dishes, 1 ml of acetone containing 0.01% peanut oil was also added to each dish. After all solvents had evaporated, the dishes were placed in circular cardboard cages containing 25 female houseflies, 1-2 days old. The cages were covered on the bottom with cellophane and on the top with tulle netting, and each contained a sugar-water saturated cotton plug for maintenance of the flies. Mortality was recorded after 48 hours. Test levels ranged from 100 μg/25 female houseflies downward. The LC-50 value is expressed below in Table 3 under the heading "HF", in terms of μg of the test compound per 25 female flies.

[3] = system: Cabbage Looper [Trichoplusia ni (Hubner)]; assay: Cabbage looper insecticidal test; conditions: second-instar larvae, percent in solution; 3-5 days
Description: as §1
Cabbage Looper [Trichoplusia ni (Hubner)]:
Test compounds were diluted in a 50-50 acetone-water solution. Cotyledons of hyzini squash (Calabacita abobrinha), approximately 1×1.5 inches, were immersed in the test solutions for 2-3 seconds and placed on a wire screen to dry. The dried leaves were placed in petri dishes containing a moistened piece of filter paper and infested with 5 second-instar cabbage looper larvae. The dishes were placed in a high humidity chamber. Mortality of the larvae was recorded 3-5 days later. Test concentrations ranged from 0.1% downward. The LC-50 value is expressed below in Table 3 under the heading "CL" in terms of percent of the test compound in solution.

Row | Compound | LC50, TBW, E (TBW-E) [1] [%] | LC50, HF [2] [µg] | LC50, CL [3] [%]
1 | Cc1cc(Br)ccc1N=C(OCc1cccc(Oc2ccccc2)c1)C(C)C [Compound 133] | 0.1 | 66 | 0.005
2 | CC(C)(C)C(=Nc1cccc(Br)c1)OCc1cccc(Oc2ccccc2)c1 [Compound 134] | > 0.1 | > 100 | 0.015
3 | CC(C)C(=Nc1cccc(I)c1)OCc1cccc(Oc2ccccc2)c1 [Compound 136] | 0.08 | 9 | 0.004
4 | CSc1ccc(N=C(OCc2cccc(Oc3ccccc3)c2)C(Cl)Cl)cc1 [Compound 141] | > 0.1 | 35 | < 0.1
5 | Cc1cccc(N=C(OCc2cccc(Oc3ccccc3)c2)C(C)C)c1C [Compound 148] | 0.025 | 18 | 0.0025
6 | COc1ccc(C)cc1N=C(OCc1cccc(Oc2ccccc2)c1)C(C)C [Compound 150] | > 0.1 | 89 | 0.01
7 | CCCCc1ccc(N=C(OCc2cccc(Oc3ccccc3)c2)C(C)C)cc1 [Compound 152] | > 0.1 | > 100 | 0.009
8 | CCC(=Nc1ccc(CC)cc1)OCc1cccc(Oc2ccccc2)c1 [Compound 157] | > 0.1 | 25 | 0.009
9 | Cc1ccc(N=C(OCc2cccc(Oc3ccccc3)c2)C(C)C)cc1C [Compound 158] | 0.1 | 9 | 0.003
10 | CCOc1ccc(N=C(OCc2cccc(Oc3ccccc3)c2)C(C)(C)C)cc1 [Compound 164] | > 0.1 | > 100 | 0.005
11 | CC(C)c1ccc(N=C(OCc2cccc(Oc3ccccc3)c2)C(C)(C)C)cc1 [Compound 165] | > 0.1 | > 100 | 0.007
12 | CSc1cccc(N=C(OCc2cccc(Oc3ccccc3)c2)C(C)C)c1 [Compound 166] | > 0.1 | 22 | 0.009
13 | Cc1ccc(N=C(OCc2cccc(Oc3ccccc3)c2)C(C)(C)C)cc1C [Compound 167] | > 0.1 | > 100 | 0.02
14 | CCOC(=O)c1cccc(N=C(OCc2cccc(Oc3ccccc3)c2)C(C)(C)C)c1 [Compound 168] | > 0.1 | > 100 | 0.1
15 | COc1ccc(N=C(OCc2cccc(Oc3ccccc3)c2)C(C)C)cc1OC [Compound 169] | > 0.1 | 10 | 0.009
16 | CC(=O)c1cccc(N=C(OCc2cccc(Oc3ccccc3)c2)C(C)C)c1 [Compound 170] | > 0.1 | 37 | 0.1
17 | CCOc1cccc(N=C(OCc2cccc(Oc3ccccc3)c2)C(C)C)c1 [Compound 171] | > 0.1 | 80 | 0.01
18 | CC(C)(C)C(=Nc1cccc([N+](=O)[O-])c1)OCc1cccc(Oc2ccccc2)c1 [Compound 175] | > 0.1 | > 100 | 0.018
19 | CC(C)C(=Nc1ccc2c(c1)OC(C)(C)O2)OCc1cccc(Oc2ccccc2)c1 [Compound 182] | 0.04 | 28 | 0.0006
20 | CC(C)C(=Nc1ccc2c(c1)OCO2)OCc1cccc(Oc2ccccc2F)c1 [Compound 183] | 0.075 | 10 | 0.00075
21 | CCCC(=Nc1ccc(OC)cc1)OCc1cccc(Oc2ccccc2)c1 [Compound 184] | > 0.1 | 61 | 0.024
22 | CCC(C)C(=Nc1ccc2c(c1)OCO2)OCc1cccc(Oc2ccccc2)c1 (stereo not drawn) [Compound 185] | 0.075 | 13 | 0.0006
23 | CC(C)C(=Nc1ccc2c(c1)OCO2)OCc1cccc(Oc2ccccc2F)c1 [Compound 190] | 0.023 | 7.5 | 0.0004

Row | Compound | LC50, TBW, E (TBW-E) [1] [%] | LC50, HF [2] [µg] | LC50, CL [3] [%]
24 | CC(C)C(=Nc1cccc(C(F)(F)F)c1)OCc1cccc(Oc2cccc(F)c2)c1 [Compound 192] | 0.07 | 25 | 0.0012
25 | CC(C)C(=Nc1ccc(Cl)c(C(F)(F)F)c1)OCc1cccc(Oc2cccc(F)c2)c1 [Compound 195] | > 0.1 | > 100 | 0.002
26 | CC(C)C(=Nc1ccc(F)cc1)OCc1cccc(Oc2ccc(F)cc2)c1 [Compound 197] | 0.05 | > 100 | 0.0004
27 | CC(C)C(=Nc1cccc(F)c1)OCc1cccc(Oc2ccc(F)cc2)c1 [Compound 200] | 0.1 | 7.5 | 0.00075
28 | COc1cccc(N=C(OCc2cccc(Oc3ccc(F)cc3)c2)C(C)C)c1 [Compound 201] | > 0.1 | 15 | 0.004
29 | CC(C)C(=Nc1ccc(F)cc1)OCc1cccc(Oc2cccc(Cl)c2)c1 [Compound 205] | > 0.1 | 50 | 0.004
30 | CC(C)C(=Nc1ccc(F)cc1)OCc1cccc(Oc2ccc(F)cc2F)c1 [Compound 206] | > 0.1 | 50 | 0.0017
31 | CC(C)C(=Nc1ccc(Cl)c(Cl)c1)OCc1cccc(Oc2cccc(Cl)c2)c1 [Compound 207] | > 0.1 | > 100 | 0.008
32 | CC(C)C(=Nc1ccc(C#N)cc1)OCc1cccc(Oc2cccc(Cl)c2)c1 [Compound 208] | > 0.1 | 27 | 0.0035
33 | CCC(C)C(=Nc1ccc(Cl)c(Cl)c1)OCc1cccc(Oc2ccc(F)cc2)c1 (stereo not drawn) [Compound 211] | > 0.1 | 61 | 0.0017
34 | CC(C)C(=Nc1ccc(F)c(F)c1)OCc1cccc(Oc2ccc(C#N)cc2)c1 [Compound 212] | 0.045 | 20 | 0.0005
35 | CC(C)C(=Nc1ccc(Cl)c(Cl)c1)OCc1cccc(Oc2ccc(F)cc2F)c1 [Compound 213] | > 0.1 | > 100 | 0.00075
36 | CC(C)C(=Nc1ccc(F)c(F)c1)OCc1cccc(Oc2ccc(F)cc2F)c1 [Compound 214] | 0.04 | 19 | 0.0003
37 | CC(C)C(=Nc1ccc(F)c(Cl)c1)OCc1cccc(Oc2cc(F)cc(F)c2)c1 [Compound 215] | > 0.1 | 75 | 0.00075
38 | CC(C)C(=Nc1ccc(Cl)c(Cl)c1)OCc1cccc(Oc2ccc(F)c(F)c2)c1 [Compound 218] | 0.025 | 25 | 0.0003
39 | COc1ccc(Oc2cccc(COC(=Nc3ccc(F)cc3)C(C)C)c2)cc1 [Compound 220] | > 0.1 | 85 | 0.007
40 | COc1ccc(Oc2cccc(COC(=Nc3ccc(F)c(Cl)c3)C(C)C)c2)cc1 [Compound 221] | > 0.1 | 62 | 0.0027
41 | CC(C)C(=Nc1ccc(C#N)c(F)c1)OCc1cccc(Oc2ccc(F)cc2)c1 [Compound 222] | > 0.1 | 32 | 0.0015
42 | COc1ccc(Oc2cccc(COC(=Nc3ccc(Cl)c(Cl)c3)C(C)C)c2)cc1 [Compound 223] | > 0.1 | 43 | 0.008
43 | CC(C)(Cl)C(=Nc1ccc(F)c(Cl)c1)OCc1cccc(Oc2ccc(F)cc2)c1 [Compound 224] | > 0.1 | > 100 | 0.001
44 | CC(C)C(=Nc1ccc(C#N)cc1)OCc1cccc(Oc2ccc(F)cc2)c1 [Compound 227] | 0.1 | 10 | 0.0015
45 | CC(C)C(=Nc1cccc(Br)c1)OCc1cccc(Oc2ccc(F)cc2)c1 [Compound 229] | > 0.1 | 20 | 0.0005

— US5070210A, “Novel ketenimines as intermediates for insecticides” (ICI Americas Inc., priority 1990, dated 1991)
